# Laboratory results: US20240043386A1, “Modulators of the Cystic Fibrosis Transmembrane Conductance Regulator Protein and Methods of Use” (AbbVie Global Enterprises Ltd., priority 2021, published 2024)
# Like-named read-outs stand apart in the source and are kept apart here.
# Experiments:
# F508del/F508del CFTR = target: T1, F508del/F508del CFTR (Homo sapiens, UniProt P13569, DEL508-508); test: Trans-Epithelial Current Clamp (TECC) assay using primary human bronchial epithelial cells; format: cell-based; details: for Emax (% Dual): maximum percent activity relative to positive control (co-corrector 0.15 μM + potentiator 0.45 μM = 100%), primary hBE cells F508del/F508del; for EC50: primary hBE cells homozygous F508del/F508del, test C2 corrector with co-corrector and potentiator, 18-24 hours at 37° C., equivalent CFTR current (IEQ)/AUC
# T1 construct: cells isolated from CF patients with the homozygous mutation; endogenous in cells; host or cells: primary human bronchial epithelial (hBE) cells from CF patients homozygous for F508del
# Source text: A cell-based assay was developed using the primary human bronchial epithelial cells (hBE cells) with F508del/F508del CFTR and other mutations.
# Primary human bronchial epithelial (hBE) cells from CFTR patients with homozygous F508del/F508del mutation were expanded from 1×10^6 to 250×10^6 cells (Neuberger, T et al., 2011, Methods Mol Biol 741:39-54). For this purpose, cells isolated from CF patients with the homozygous mutation, procured from the CF center tissue procurement and cell culture core at the Marsico Lung Institute at UNC (Randell), the Cystic Fibrosis translational research center at McGill University (University), and Rosalind Franklin University Medical School (RFUMS) were seeded onto 24 well Corning (Cat #3378) filter plates that were coated with 3T3 conditioned media and grown at an air-liquid interface for 35 days using an Ultroser® G supplemented differentiation media. All the primary human bronchial epithelial cells were collected in accordance with institutional review board approval protocols. Apical surface mucus was removed 72 hours before the experiment by incubating the apical surface of the cells for 30 minutes with 3 mM dithiothreitol (DTT) prepared in Dulbecco's phosphate buffered saline (DPBS) with Ca^2+ and Mg^2+. This was followed with aspiration of the mucus from the apical surface along with DPBS. The apical surface was re-washed with phosphate buffered saline (PBS) incubated for 30 minutes followed with aspiration. These hBE cells were then incubated with the desired concentrations of the test C2 corrector compounds along with co-corrector, 4-[(2R,4R)-4-({[1-(2,2-difluoro-1,3-benzodioxol-5-yl)cyclopropyl]carbonyl}amino)-7-(difluoromethoxy)-3,4-dihydro-2H-chromen-2-yl]benzoic acid and potentiator, (5-{3-amino-5-[4-(trifluoromethoxy)benzene-1-sulfonyl]pyridin-2-yl}-1,3,4-oxadiazol-2-yl)methanol, for 18-24 hours at 37° C., 5% CO2. The desired concentrations of the correctors and potentiator compounds were prepared from the 10 mM stocks in differentiation media and were always applied on the basolateral side of the epithelial cells. We also used an assay format where a fixed concentration of potentiator was added chronically along with the corrector compounds. This chronic treatment with the potentiator helped eliminate any interaction that might happen with CFTR modulators (correctors and potentiators) and thereby determined the true efficacy of the modulator combinations reflective of clinical relevance.
# The assay uses a Transepithelial Current Clamp (TECC) (Vu, C B et al., 2017; J Med Chem 60:458-473) instrument that can measure the functionality of the mutated channel by measuring the equivalent CFTR current (IEQ) generated by the polarized primary epithelial cells. We used a TECC-24 with a 24-channel electrode manifold allowing for the simultaneous measurement of the transepithelial voltage, VT, and transepithelial resistance, RT, under current clamp conditions, from 24 filters using a 24 well Costar filter plate. The design of the filters in the 24 well filter plates was exactly the same as the design of an individual Transwell filter used in the classical Ussing Chamber with a surface area of 0.33 cm^2. Each measured VT values were corrected for the electrode offset potential measured using buffer alone in a separate plate, and each measured RT values were then corrected for the combined solution series and empty filter resistances. The corrected VT and RT values were then used to calculate the equivalent current, IEQ using Ohm's law (IEQ=VT/RT). The area under the curve (AUC) for the time period between the forskolin peak IEQ response and at the time of bumetanide addition was also calculated using a one-third trapezoid method, in addition to calculating the IEQ. The assay was run in a 24-well format and all 24-wells were measured at the same time point giving a higher throughput for this assay. […]
# F508delCFTR = target: T2, F508delCFTR (Homo sapiens, UniProt P13569, DEL508-508); test: Cell Surface Expression-Horse Radish Peroxidase (CSE-HRP) assay in CFBE41o-F508delCFTR-HRP cells; format: cell-based; details: for EC50: CFBE41o-F508delCFTR-HRP cells, 18-24 hours at 33° C., luminescence; for Maximum % activity (without co-corrector) / Maximum % activity (with co-corrector): normalized to on-plate positive control corrector (2 μM)
# T2 construct: expressed in transfected cells; host or cells: CFBE41o- human lung-derived epithelial cell line, doxycycline-inducible expression
# Method: A cellular assay for measuring the F508delCFTR cell surface expression after correction with test compounds either without or with a co-corrector (2 μM of 3-[(2R,4R)-4-({[1-(2,2-difluoro-1,3-benzodioxol-5-yl)cyclopropyl]carbonyl}amino)-7-methoxy-3,4-dihydro-2H-chromen-2-yl]benzoic acid), was developed in human lung derived epithelial cell line (CFBE4lo-) (Veit G et al, (2012) Mol Biol Cell. 23(21): 4188-4202). The development was achieved by expressing the F508delCFTR mutation along with a horseradish peroxidase (HRP) in the fourth exofacial loop, and then measuring the HRP activity using luminescence readout from these cells, CFBE4lo-F508delCFTR-HRP, that were incubated overnight with the test corrector compounds, either without or with the co-corrector. For this primary assay, the CFBE4lo-F508delCFTR-HRP cells were plated in 384-well plates (Greiner Bio-one; Cat 781080) at 4,000 cells/well along with 0.5 μg/mL doxycycline to induce the F508delCFTR-RP expression and further incubated at 37° C., 5% CO2 for 68-72 hours. The test compounds were then added either without or with a co-corrector at the required concentrations and further incubated for 18-24 hours at 33° C. The highest concentration tested was 20 μM or 30 μM (GI-1 to GIII-36) with an 8-point concentration response curve using a 3-fold dilution in both the test compound without or with the co-corrector. Three replicate plates were run to determine one EC50. All plates contained negative controls (dimethyl sulfoxide, DMSO) and positive control (2 μM or 3 μM (GI-1 to GIII-36) of 3-[(2R,4R)-4-({[1-(2,2-difluoro-1,3-benzodioxol-5-yl)cyclopropyl]carbonyl}amino)-7-methoxy-3,4-dihydro-2H-chromen-2-yl]benzoic acid) as well as on-plate concentration response of the positive control. Post incubation, the plates were washed 5× times with Dulbecco's phosphate buffered saline (DPBS), followed by the addition of the HRP substrate, luminol (50 μL), and measuring the HRP activity using luminescence readout on EnVision® Multilabel Plate Reader (Perkin Elmer; product number 2104-0010). The raw counts from the experiment were analyzed using Accelrys® Assay Explorer v3.3.
# Z′ greater than 0.5 was used as passing quality control criteria for the plates. The Z′ is defined as:
# 1−[3*SDPositive Control+3*SDNegative Control/Absolute (MeanPositive Control−MeanNegative Control)]
# The % activity measured at each of the 8 test concentrations of the test compound added either without or with a co-corrector (2 μM or 3 μM (GI-1 to GIII-36) of 3-[(2R,4R)-4-({[1-(2,2-difluoro-1,3-benzodioxol-5-yl)cyclopropyl]carbonyl}amino)-7-methoxy-3,4-dihydro-2H-chromen-2-yl]benzoic acid) was normalized to the on-plate positive control using the following formulae:
# % activity (Test compound without co-corrector)=[(test compound without co-corrector response−DMSO response)/(positive control response−DMSO response)]*100
# % activity (Test compound with co-corrector)=[(test compound with co-corrector response−DMSO response)/(positive control response−DMSO response)]*100
# The maximum % activity achieved for the test compound either without or with a co-corrector at any tested concentration is presented in Table 3 along with the respective EC50's calculated using the following general sigmoidal curve with variable Hill slope equation (described as Model 42 in the Accelrys® Assay Explorer v3.3 software):
# General sigmoidal curve with concentration, response, top, bottom, EC50 and Hill slope. This model describes a sigmoidal curve with an adjustable baseline, a. The equation can be used to fit curves where response is either increasing or decreasing with respect to the independent variable, “x”.
# [1] = with co-corrector (2 μM), read-out: EC50 (with co-corrector)
# [2] = without co-corrector, read-out: EC50 (without co-corrector)
# T1 sequence (P13569 with tags, fused parts or gaps DEL508-508): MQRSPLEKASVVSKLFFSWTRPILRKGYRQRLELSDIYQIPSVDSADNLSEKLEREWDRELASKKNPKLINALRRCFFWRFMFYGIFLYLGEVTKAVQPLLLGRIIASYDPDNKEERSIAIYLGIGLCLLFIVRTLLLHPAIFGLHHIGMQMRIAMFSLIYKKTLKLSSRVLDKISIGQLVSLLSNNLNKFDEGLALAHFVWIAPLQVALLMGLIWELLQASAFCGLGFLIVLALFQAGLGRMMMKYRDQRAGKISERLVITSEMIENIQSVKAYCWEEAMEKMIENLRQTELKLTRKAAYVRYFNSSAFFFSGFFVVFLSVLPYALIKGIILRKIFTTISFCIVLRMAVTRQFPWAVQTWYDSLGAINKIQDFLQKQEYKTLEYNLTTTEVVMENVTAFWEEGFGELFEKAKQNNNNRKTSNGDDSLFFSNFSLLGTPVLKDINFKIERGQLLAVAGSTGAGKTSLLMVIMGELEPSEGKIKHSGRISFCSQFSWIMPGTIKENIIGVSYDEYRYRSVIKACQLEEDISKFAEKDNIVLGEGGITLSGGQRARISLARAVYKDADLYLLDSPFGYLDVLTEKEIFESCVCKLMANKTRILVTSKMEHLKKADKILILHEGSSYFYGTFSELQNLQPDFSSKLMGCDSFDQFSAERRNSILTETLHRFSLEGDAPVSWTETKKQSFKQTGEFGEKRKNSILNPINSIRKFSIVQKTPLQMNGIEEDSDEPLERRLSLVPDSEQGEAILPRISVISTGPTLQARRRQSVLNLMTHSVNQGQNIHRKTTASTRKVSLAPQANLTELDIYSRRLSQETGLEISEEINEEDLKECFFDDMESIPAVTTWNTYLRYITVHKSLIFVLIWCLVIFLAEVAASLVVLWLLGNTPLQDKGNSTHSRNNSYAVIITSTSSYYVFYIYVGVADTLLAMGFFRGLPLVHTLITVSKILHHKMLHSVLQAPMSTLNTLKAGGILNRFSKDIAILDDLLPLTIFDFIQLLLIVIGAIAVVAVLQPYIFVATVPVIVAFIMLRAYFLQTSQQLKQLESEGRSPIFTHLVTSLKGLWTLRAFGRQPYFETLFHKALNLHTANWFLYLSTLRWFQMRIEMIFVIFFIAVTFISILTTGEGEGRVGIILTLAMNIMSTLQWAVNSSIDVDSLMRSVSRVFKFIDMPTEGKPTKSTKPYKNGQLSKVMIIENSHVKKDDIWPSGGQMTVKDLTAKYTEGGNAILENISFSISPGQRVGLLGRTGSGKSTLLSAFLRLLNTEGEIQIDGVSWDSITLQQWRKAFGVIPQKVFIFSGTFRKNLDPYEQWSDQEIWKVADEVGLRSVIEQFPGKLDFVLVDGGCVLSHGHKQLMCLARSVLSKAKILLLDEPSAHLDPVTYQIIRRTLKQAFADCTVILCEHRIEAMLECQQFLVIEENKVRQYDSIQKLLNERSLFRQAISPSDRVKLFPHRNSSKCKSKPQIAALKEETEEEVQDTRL
# T2 sequence (P13569 with tags, fused parts or gaps DEL508-508): as above
Compound,Emax (% Dual) (F508del/F508del CFTR),EC50 (F508del/F508del CFTR) [nM],EC50 (F508delCFTR; [1]) [nM],EC50 (F508delCFTR; [2]) [nM],Maximum % activity (without co-corrector) (F508delCFTR; without co-corrector) [%],Maximum % activity (with co-corrector) (F508delCFTR; with co-corrector (2 μM)) [%]
"COc1ccc(C)cc1[C@]1(C(=O)NS(=O)(=O)c2cccc3nc(C)ccc23)C[C@@H]1c1cccc(C(F)(F)F)c1 (racemic) [Example 12, rac-(1r,2s)-1-(2-methoxy-5-methylphenyl)-N-(2-methylquinoline-5-sulfonyl)-2-[3-(trifluoromethyl)phenyl]cyclopropane-1-carboxamide]",407,0.51,327,479,,
"COc1cccc([C@@H]2C[C@]2(C(=O)NS(=O)(=O)c2cccc3nc(C)ccc23)c2cc(C)ccc2OC)c1 (racemic) [Example 15, rac-(1r,2s)-1-(2-methoxy-5-methylphenyl)-2-(3-methoxyphenyl)-N-(2-methylquinoline-5-sulfonyl)cyclopropane-1-carboxamide]",308,0.84,698,1010,,
"COc1ccc(C)cc1[C@@]1(C(=O)NS(=O)(=O)c2cccc3nc(C)ccc23)C[C@H]1c1ccccc1F (racemic) [Example 22, rac-(1r,2r)-2-(2-fluorophenyl)-1-(2-methoxy-5-methylphenyl)-N-(2-methylquinoline-5-sulfonyl)cyclopropane-1-carboxamide]",268,9,844,929,,
"COc1ccc(C)cc1[C@]1(C(=O)NS(=O)(=O)c2cccc3nc(C)ccc23)C[C@@H]1c1ccccc1C(F)(F)F (racemic) [Example 29, rac-(1r,2s)-1-(2-methoxy-5-methylphenyl)-N-(2-methylquinoline-5-sulfonyl)-2-[2-(trifluoromethyl)phenyl]cyclopropane-1-carboxamide]",241,7.7,164,273,666,
"COc1ccc(C)cc1[C@@]1(C(=O)NS(=O)(=O)c2cccc3nc(C)ccc23)C[C@H]1c1cncc(C)n1 (racemic) [Example 35, rac-(1r,2r)-1-(2-methoxy-5-methylphenyl)-2-(6-methylpyrazin-2-yl)-N-(2-methylquinoline-5-sulfonyl)cyclopropane-1-carboxamide]",331,47.9,1220,1710,582,
"COc1ncc([C@@H]2C[C@]2(C(=O)NS(=O)(=O)c2cccc3nc(C)ccc23)c2cc(C)ccc2OC)cn1 (racemic) [Example 36, rac-(1r,2s)-1-(2-methoxy-5-methylphenyl)-2-(2-methoxypyrimidin-5-yl)-N-(2-methylquinoline-5-sulfonyl)cyclopropane-1-carboxamide]",173,> 300,2480,4320,248,666
"COc1cnc([C@@H]2C[C@]2(C(=O)NS(=O)(=O)c2cccc3nc(C)ccc23)c2cc(C)ccc2OC)cn1 (racemic) [Example 39, rac-(1r,2r)-1-(2-methoxy-5-methylphenyl)-2-(5-methoxypyrazin-2-yl)-N-(2-methylquinoline-5-sulfonyl)cyclopropane-1-carboxamide]",317,18,639,1230,563,
"COc1ccc(C)cc1[C@@]1(C(=O)NS(=O)(=O)c2cccc3nc(C)ccc23)C[C@H]1c1cccnc1OC (racemic) [Example 40, rac-(1r,2s)-1-(2-methoxy-5-methylphenyl)-2-(2-methoxypyridin-3-yl)-N-(2-methylquinoline-5-sulfonyl)cyclopropane-1-carboxamide]",328,19.6,749,1550,448,934
"COc1cncc([C@@H]2C[C@]2(C(=O)NS(=O)(=O)c2cccc3nc(C)ccc23)c2cc(C)ccc2OC)c1 (racemic) [Example 41, rac-(1r,2s)-1-(2-methoxy-5-methylphenyl)-2-(5-methoxypyridin-3-yl)-N-(2-methylquinoline-5-sulfonyl)cyclopropane-1-carboxamide]",244,110,1770,2980,497,
